Common to all, as to type: cell-based, human
The subject of assay [1] is phosphorylation of RSK1(S380) (the downstream target of ERK1/2). As to the kind of experiment: Phospho-RSK1(S380) ELISA assay in HT-29 cells. The conditions noted are these: Homo sapiens, HT-29, HT29 cells, phospho-RSK1(S380); read-out: Mechanistic Cell Assay RSK1 Phos HT29 IC50. On the procedure: Phospho-RSK1(S380) ELISA Assay
HT-29 cells (colorectal carcinoma, B-RafV600E); obtained from ATCC, USA) were seeded (60,000 cells/well) in a 96-well plate and incubated at 37° C./5% CO2 overnight and then treated with desired compound dilutions for 2 h. Medium was removed and cells were rinsed once with ice-cold 1×PBS, then 0.070 mL ice-cold 1× cell lysis buffer containing 1 mM PMSF was added to each well and the plate was incubated on a shaker for 2 h and 30 min at 4° C. The plate was then centrifuged for 20 min (×4000 rpm) at 4° C. and the supernatant was transferred to a new plate. Cell lysates were diluted with sample diluent at a ratio of 1:1. The ELISA was then carried out following the manufacturer's protocol (PathScan® phospho-RSK1(Ser380) Sandwich ELISA Kit, Cell Signaling Technologies). The plate was read at 450 nm within 30 min after adding STOP solution. The IC50 values were subsequently determined using a sigmoidal dose-response curve (variable slope) in GraphPad Prism® 5 software.

Assay [2] relates to HT-29 (colorectal carcinoma, B-RafV600E) cells. Nature of the assay: Cell proliferation (Alamar Blue) assay, HT-29. The conditions noted are these: Homo sapiens, HT-29, HT29 cells. Here is the method: (§1) Cell Proliferation (Alamar Blue) Assay
(§2) HT-29 (colorectal carcinoma, B-RafV600E), HCT116 (colorectal carcinoma, K Ras G13D), A375 (melanoma, B-RafV600E) and SK-Mel2 (melanoma, NRAS Q61R) cells (obtained from ATCC, USA) were seeded (5000 cells/well) in 96-well tissue culture plate and incubated at 37° C./5% CO2 for 16-24 hours. The cells were then treated with compounds, at concentrations typically from 0.0005 to 10 uM prepared in 3-fold serial dilutions. The plates were then incubated for 72 h at 37° C./5% CO2 in a moist environment. Then Alamar Blue™ reagent (final concentration 1×) was added to each well and incubated for 1-3 h at 37° C./5% CO2. The plates were read on fluorescence reader at 540 nm excitation and 590 nm emission wavelengths. The IC50 values were subsequently determined using a sigmoidal dose-response curve (variable slope) using GraphPad Prism® 5 software.

For assay [3], the system named is HCT116 (colorectal carcinoma, K Ras G13D) cells. Nature of the assay: Cell proliferation (Alamar Blue) assay, HCT116. The conditions noted are these: Homo sapiens, HCT-116, HCT116 cells. Here is the method: as §1, §2

Counter-ions that a name gives are not always drawn. A value given as a limit tells only on which side of the number the result lay.

The results in this text go back to patent publication US11925629B2, “Heterocyclic inhibitors of ERK1 and ERK2 and their use in the treatment of cancer” (Asana Biosciences, LLC, priority 2015, dated 2024).

For `Cc1cnc(Nc2ccc(F)cc2Cl)nc1-n1ccc(C(=O)N[C@H](CO)c2cccc(Cl)c2)c1` [Cmpd 29, (S)-1-(2-((2-chloro-4-fluorophenyl)-amino)-5-methyl-pyrimidin-4-yl)-N-(1-(3-chlorophenyl)-2-hydroxy-ethyl)-1H-pyrrole-3-carboxamide], the IC50 in assay [1] was 250 to 500 nM.

Take `Cc1cnc(Nc2ccc(F)cc2)cc1-n1cnc(C(=O)NC(CN)c2ccccc2)c1` (centres unmarked) [Compound #191, N-(2-amino-1-phenylethyl)-1-(2-((4-fluorophenyl)amino)-5-methylpyridin-4-yl)-1H-imidazole-4-carboxamide]: the IC50 in assay [1] fell in the range of 100 to 250 nM. With `Cc1cnc(Nc2ccc3c(c2)OCO3)nc1-n1ccc(C(=O)NC(CO)c2cccnc2)c1` (centres unmarked) [Example 103, 1-(2-(benzo[d][1,3]dioxol-5-ylamino)-5-methyl-pyrimidin-4-yl)-N-(2-hydroxy-1-(pyridin-3-yl)ethyl)-1H-pyrrole-3-carboxamide], the IC50 in assay [2] and in assay [3] was above 2500 nM throughout. On to `Cc1cnc(Nc2ccc3ocnc3c2)nc1-n1ccc(C(=O)NC(CO)c2ccccc2)c1` (centres unmarked) [Example 104, 1-(2-(benzo[d]oxazol-5-ylamino)-5-methyl-pyrimidin-4-yl)-N-(2-hydroxy-1-phenylethyl)-1H-pyrrole-3-carboxamide], for which the IC50 in assay [2] and in assay [3] was above 2500 nM in each case. On to `Cc1cn(-c2nc(Nc3ccc(F)cc3)ncc2C)cc1C(=O)NC(CO)c1ccccc1` (centres unmarked) [Example 108, 1-(2-((4-fluoro-phenyl)amino)-5-methyl-pyrimidin-4-yl)-N-(2-hydroxy-1-phenylethyl)-4-methyl-1H-pyrrole-3-carboxamide], for which the IC50 in assay [2] and in assay [3] was above 2500 nM throughout. On to `O=C(NC(CO)c1cccc(Cl)c1)c1ccn(-c2ccnc(Nc3ccc(F)cc3Cl)n2)c1` (centres unmarked) [Example 111, 1-(2-((2-chloro-4-fluorophenyl)amino)pyrimidin-4-yl)-N-(1-(3-chlorophenyl)-2-hydroxy-ethyl)-1H-pyrrole-3-carboxamide], for which the IC50 in assay [2] and in assay [3] was above 2500 nM each time.

Turning to `NCC(Cc1ccccc1)NC(=O)c1ccn(-c2ccnc(Nc3ccc(F)cc3)c2)c1` (centres unmarked) [Example 119, N-(1-amino-3-phenyl-propan-2-yl)-1-(2-((4-fluoro-phenyl)amino)pyridin-4-yl)-1H-pyrrole-3-carboxamide], the IC50 in assay [2] and in assay [3] was above 2500 nM throughout.

Turning to `Cc1cnc(NC2CCOCC2)nc1-n1ccc(C(=O)NC(CO)c2ccccc2)c1` (centres unmarked) [Example 120, N-(2-hydroxy-1-phenylethyl)-1-(5-methyl-2-((tetrahydro-2H-pyran-4-yl)amino)pyrimidin-4-yl)-1H-pyrrole-3-carboxamide], the IC50 in assay [2] and in assay [3] was above 2500 nM in each case.

In the case of `CC(=O)NCC(NC(=O)c1ccn(-c2cc(Nc3ccc(F)cc3)ncc2C)c1)c1ccccc1` (centres unmarked) [Example 135, N-(2-acetamido-1-phenylethyl)-1-(2-((4-fluorophenyl)-amino)-5-methyl-pyridin-4-yl)-1H-pyrrole-3-carboxamide], in assay [1], the IC50 fell in the range of 500 to 2500 nM. `O=C(NC(CO)c1cccc(Cl)c1)c1ccn(-c2ccnc(NC3CCNC3)c2)c1` (centres unmarked) [Example 145, N-(1-(3-chloro-phenyl)-2-hydroxy-ethyl)-1-(2-(pyrrolidin-3-ylamino)pyridin-4-yl)-1H-pyrrole-3-carboxamide]: the IC50 in assay [1] was above 2500 nM.

For the molecule `Cc1cnc(NC2(CO)CC2)nc1-n1ccc(C(=O)NC(CO)c2ccc(F)c(Cl)c2)c1` (centres unmarked) [Example 203, N-(1-(3-chloro-4-fluorophenyl)-2-hydroxyethyl)-1-(2-((1-(hydroxymethyl)cyclopropyl)amino)-5-methylpyrimidin-4-yl)-1H-pyrrole-3-carboxamide], the IC50 in assay [2] and in assay [3] was above 2500 nM throughout.

As for `Cc1cnc(NC2CCN(C)C2)nc1-n1ccc(C(=O)N[C@H](CO)c2cccc(Cl)c2)c1` (stereo partly drawn) [Example 208, N-((S)-1-(3-chlorophenyl)-2-hydroxyethyl)-1-(5-methyl-2-((1-methylpyrrolidin-3-yl)amino)pyrimidin-4-yl)-1H-pyrrole-3-carboxamide], the results for the IC50 in assay [2] and in assay [3] were 500 to 2500 nM and above 2500 nM, respectively. For `Cc1cnc(Nc2ccc3[nH]cc(C4=CCNCC4)c3c2)nc1-n1ccc(C(=O)NC(CO)c2cccc(Cl)c2)c1` (centres unmarked) [Example 209, N-(1-(3-chlorophenyl)-2-hydroxyethyl)-1-(5-methyl-2-((3-(1,2,3,6-tetrahydropyridin-4-yl)-1H-indol-5-yl)amino)pyrimidin-4-yl)-1H-pyrrole-3-carboxamide hydrochloride], in that order: above 2500 nM and above 2500 nM.

On to `Cc1cnc(NC2CCOCC2)nc1-n1cnc(C(=O)N[C@@H](CO)c2cccc(Cl)c2)c1` [Example 217, (R)-N-(1-(3-chlorophenyl)-2-hydroxyethyl)-1-(5-methyl-2-((tetrahydro-2H-pyran-4-yl)amino)pyrimidin-4-yl)-1H-imidazole-4-carboxamide], for which the IC50 in assay [2] and in assay [3] was above 2500 nM in each case.

For the molecule `CC[C@@H](CO)Nc1ncc(C)c(-n2ccc(C(=O)N[C@@H](CO)c3cccc(Cl)c3)c2)n1` [Example 218, N-((R)-1-(3-chlorophenyl)-2-hydroxyethyl)-1-(2-(((S)-1-hydroxybutan-2-yl)amino)-5-methylpyrimidin-4-yl)-1H-pyrrole-3-carboxamide], the half-maximal inhibitory concentration (IC50) in assay [2] and in assay [3] was above 2500 nM throughout. For `NCC(NC(=O)c1cn(-c2ccnc(Nc3ccc(F)cc3)c2)cn1)c1ccccc1` (centres unmarked) [Example 221, N-(2-amino-1-phenylethyl)-1-(2-((4-fluorophenyl)amino)pyridin-4-yl)-1H-imidazole-4-carboxamide], the IC50 lay in the range of 250 to 500 nM in assay [2] and 500 to 2500 nM in assay [3]. For `Cc1cnc(Nc2ccc(F)cc2)cc1-n1cnc(C(=O)NC(CO)c2ccccc2)c1` (centres unmarked) [Example 222, 1-(2-((4-fluorophenyl)amino)-5-methylpyridin-4-yl)-N-(2-hydroxy-1-phenylethyl)-1H-imidazole-4-carboxamide], the IC50 in assay [2] and in assay [3] was above 2500 nM throughout. For `Cc1cnc(Nc2ccc(F)c(N3CCOCC3)c2)nc1-n1cnc(C(=O)NC(CO)c2cccc(Cl)c2)c1` (centres unmarked) [Example 223, N-(1-(3-chlorophenyl)-2-hydroxyethyl)-1-(2-((4-fluoro-3-morpholinophenyl)amino)-5-methylpyrimidin-4-yl)-1H-imidazole-4-carboxamide], the IC50 in assay [2] and in assay [3] was 250 to 500 nM each time. As to `Cc1cnc(NC2CCCCC2)nc1-n1cnc(C(=O)NC(CO)c2cccc(Cl)c2)c1` (centres unmarked) [Example 226, N-(1-(3-chlorophenyl)-2-hydroxyethyl)-1-(2-(cyclohexylamino)-5-methylpyrimidin-4-yl)-1H-imidazole-4-carboxamide], the results for the IC50 in assay [2] and in assay [3] were 250 to 500 nM and above 2500 nM, respectively. On to `O=C(N[C@H](CO)c1cccc(Cl)c1)c1ccn(-c2nc(NC3CCOCC3)ncc2F)c1` [Example 229, (S)-N-(1-(3-chlorophenyl)-2-hydroxyethyl)-1-(5-fluoro-2-((tetrahydro-2H-pyran-4-yl)amino)pyrimidin-4-yl)-1H-pyrrole-3-carboxamide], for which the IC50 is at most 100 nM in assay [2] and 500 to 2500 nM in assay [3]. Turning to `Cc1cnc(Nc2ccc(F)cc2)cc1-n1cnc(C(=O)NC(CN)c2ccc(F)cc2)c1` (centres unmarked) [Example 230, N-(2-amino-1-(4-fluorophenyl)ethyl)-1-(2-((4-fluorophenyl)amino)-5-methylpyridin-4-yl)-1H-imidazole-4-carboxamide], the IC50 is 500 to 2500 nM in assay [2] and above 2500 nM in assay [3]. `Cc1cnc(NC2CCOCC2)nc1-n1cnc(C(=O)NC(CO)c2ccsc2)c1` (centres unmarked) [Example 234, N-(2-hydroxy-1-(thiophen-3-yl)ethyl)-1-(5-methyl-2-((tetrahydro-2H-pyran-4-yl)amino)pyrimidin-4-yl)-1H-imidazole-4-carboxamide]: in assay [1], the IC50 is 500 to 2500 nM. The same measure, in the same setting: next, `Cc1cnc(NC2CCOCC2)nc1-n1cnc(C(=O)NCc2sccc2CN)c1` [Example 294, N-((3-(aminomethyl)thiophen-2-yl)methyl)-1-(5-methyl-2-((tetrahydro-2H-pyran-4-yl)amino)pyrimidin-4-yl)-1H-imidazole-4-carboxamide]: above 2500 nM; `Cc1cnc(NC2CCOCC2)nc1-n1cnc(C(=O)N[C@H](CO)c2cc(F)cc(Cl)c2)c1` [Example 295, (S)-N-(1-(3-chloro-5-fluorophenyl)-2-hydroxyethyl)-1-(5-methyl-2-((tetrahydro-2H-pyran-4-yl)amino)pyrimidin-4-yl)-1H-imidazole-4-carboxamide]: at most 100 nM.
